The record followed here is patent US12522594B2, “2-heteroaryl-3-oxo-2,3-dihydropyridazine-4-carboxamides for the treatment of cancer” (Deutsches Krebsforschungszentrum, priority 2017, dated 2026).

pIC50: −log10 of the molar value.

Assay [1] has as its target T1, AHR (Homo sapiens, UniProt P35869).
T1 sequence (P35869 11-848): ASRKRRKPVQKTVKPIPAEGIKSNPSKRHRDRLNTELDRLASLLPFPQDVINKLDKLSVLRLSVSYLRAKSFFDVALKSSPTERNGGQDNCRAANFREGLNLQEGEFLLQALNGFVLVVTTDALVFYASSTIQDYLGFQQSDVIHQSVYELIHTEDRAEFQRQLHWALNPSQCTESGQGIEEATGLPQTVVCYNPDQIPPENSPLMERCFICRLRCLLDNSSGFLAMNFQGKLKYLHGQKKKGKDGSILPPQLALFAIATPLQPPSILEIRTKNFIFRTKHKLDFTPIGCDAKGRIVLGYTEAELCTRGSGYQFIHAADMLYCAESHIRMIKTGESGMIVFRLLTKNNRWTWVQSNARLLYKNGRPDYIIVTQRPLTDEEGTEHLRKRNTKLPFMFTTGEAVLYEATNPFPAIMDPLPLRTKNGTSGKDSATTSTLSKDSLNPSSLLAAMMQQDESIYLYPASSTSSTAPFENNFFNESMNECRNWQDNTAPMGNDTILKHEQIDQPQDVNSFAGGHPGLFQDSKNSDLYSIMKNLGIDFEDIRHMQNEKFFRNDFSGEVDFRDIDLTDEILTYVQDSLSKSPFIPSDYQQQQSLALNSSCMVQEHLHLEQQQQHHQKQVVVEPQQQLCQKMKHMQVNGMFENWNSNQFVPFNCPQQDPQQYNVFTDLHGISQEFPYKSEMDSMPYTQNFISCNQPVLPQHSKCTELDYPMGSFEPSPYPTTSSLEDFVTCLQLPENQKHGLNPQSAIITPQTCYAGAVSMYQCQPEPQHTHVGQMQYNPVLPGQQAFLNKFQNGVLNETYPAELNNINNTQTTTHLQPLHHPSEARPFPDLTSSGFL
In words: In vitro assay 1: antagonism in human cell line (transactivation assay, U87 cells prestimulated with kynurenic acid, DRE firefly luciferase reporter). Format: cell-based. To be noted: 150 uM kynurenic acid, 20 hours, read-out: Assay 1: AHR-luc Hum Antagonism IC50. Further details: host or cells: U87 glioblastoma cells, stably transfected with DRE firefly luciferase and renilla reporter constructs. The gist of the method:
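Antagonism measured after kynurenic acid prestimulation in U87 cells that express AHR endogenously and stably harbor a firefly luciferase gene under DRE control plus a constitutive renilla construct. Positive and negative controls served for normalization.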

For assay [2], the target named is T1, AHR. In words: In vitro assay 2: agonism in human cell line (transactivation assay, U87 cells, DRE firefly luciferase reporter). To be noted: no kynurenic acid, 20 hours, read-out: Assay 2: AHR-luc Hum Agonism IC50. Format: cell-based. Further details: host or cells: U87 glioblastoma cells, stably transfected with DRE firefly luciferase and renilla reporter constructs. Put shortly:
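Agonist readout: DRE firefly luciferase, with constitutive renilla reporter, in stably transfected U87 cells expressing AHR endogenously. Normalization used positive control (300 uM kynurenic acid) and negative control.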

On to `COCC(O)CNC(=O)c1cc(-c2ccc(Cl)cc2)nn(-c2cnn(C)c2)c1=O` (single isomer, unassigned; (+)) [Example 26, (+)-6-(4-Chlorophenyl)-N-(2-hydroxy-3-methoxypropyl)-2-(1-methyl-1H-pyrazol-4-yl)-3-oxo-2,3-dihydropyridazine-4-carboxamide], for which the pIC50 on AHR [1] is 7.06; at AHR [2], below 4.70.
Take `O=C(N[C@H](CO)C1CC1)c1cc(-c2ccc(C(F)F)cc2)nn(-c2cccnc2)c1=O` [Example 150, N-[(1S)-1-Cyclopropyl-2-hydroxyethyl]-6-[4-(difluoromethyl)phenyl]-3-oxo-2-(pyridin-3-yl)-2,3-dihydropyridazine-4-carboxamide]: the negative-log IC50 (pIC50) is 7.70 on AHR [1] and below 4.70 on AHR [2].
For `O=C(N[C@@H]1CC[C@@H]1O)c1cc(-c2ccc(C(F)(F)F)cc2)nn(-c2cccnc2)c1=O` (relative stereo) [Example 224, N-cis-2- Hydroxycyclobutyl-3-oxo-2-(pyridin-3-yl)-6-[4-(trifluoromethyl)phenyl]-2,3-dihydropyridazine-4-carboxamide], the figures for the pIC50 on AHR [1] and at AHR [2] were 8.36 and below 4.70, respectively.
On the same counts, the results for `C[C@@H](CO)NC(=O)c1cc(-c2ccc(Cl)cc2)nn(-c2cnn(C(F)F)c2)c1=O` [Example 272, 6-(4-Chlorophenyl)-2-[1-(difluoromethyl)-1H-pyrazol-4-yl]-N-[(2S)-1-hydroxypropan-2-yl]-3-oxo-2,3-dihydropyridazine-4-carboxamide] are 7.04 and below 4.70.
On the same counts, the results for `C[C@@H](NC(=O)c1cc(-c2ccc(C(F)(F)F)nc2)nn(-c2cncc(F)c2)c1=O)C(C)(C)O` [Example 342, 2-(5-Fluoropyridin-3-yl)-N-[(2R)-3-hydroxy-3-methylbutan-2-yl]-3-oxo-6-[6-(trifluoromethyl)pyridin-3-yl]-2,3-dihydropyridazine-4-carboxamide] are 6.88 and below 4.70.
Take `CC(C)(O)CNC(=O)c1cc(-c2ccc(C(F)(F)F)nc2)nn(-c2cncc(F)c2)c1=O` [Example 344, 2-(5-Fluoropyridin-3-yl)-N-(2-hydroxy-2-methylpropyl)-3-oxo-6-[6-(trifluoromethyl)pyridin-3-yl]-2,3-dihydropyridazine-4-carboxamide]: the pIC50 on AHR [1] is 6.76; on AHR [2], below 4.70.
For `O=C(N[C@@H]1CC[C@@H]1O)c1cc(-c2ccc(Cl)cc2)nn(-c2cccnc2)c1=O` (relative stereo) [Example 258, 6-(4-Chlorophenyl)-N-cis-2-hydroxycyclobutyl-3-oxo-2-(pyridin-3-yl)-2,3-dihydropyridazine-4-carboxamide], in that order: 7.56 and below 4.70.
For `C[C@@H](NC(=O)c1cc(-c2ccc(OC(F)(F)F)cc2)nn(-c2cccnc2)c1=O)C(C)(C)O` [Example 294, N-[(2R)-3-Hydroxy-3-methylbutan-2-yl]-3-oxo-2-(pyridin-3-yl)-6-[4-(trifluoromethoxy)phenyl]-2,3-dihydropyridazine-4-carboxamide], in that order: 7.30 and below 4.70.
Consider `C[C@H](NC(=O)c1cc(-c2ccc(C(F)(F)F)nc2)nn(-c2cncc(F)c2)c1=O)C(C)(C)O` [Example 340, 2-(5-Fluoropyridin-3-yl)-N-[(2S)-3-hydroxy-3-methylbutan-2-yl]-3-oxo-6-[6-(trifluoromethyl)pyridin-3-yl]-2,3-dihydropyridazine-4-carboxamide], for which the values for the negative-log IC50 (pIC50) at AHR [1] and at AHR [2] were 7.30 and below 4.70, respectively.
Turning to `O=C(NCC(O)C(F)F)c1cc(-c2ccc(C(F)(F)F)cc2)nn(-c2cccnc2)c1=O` (racemic) [Example 101, N-[(2RS)-3,3-Difluoro-2-hydroxypropyl]-3-oxo-2-(pyridin-3-yl)-6-[4-(trifluoromethyl)phenyl]-2,3-dihydropyridazine-4-carboxamide], the negative-log IC50 (pIC50) at AHR [1] was 8.02; at AHR [2], below 4.70.
On the same counts, the results for `O=C(N[C@H](CO)CF)c1cc(-c2ccc(Cl)cc2)nn(-c2cnsc2)c1=O` [Example 201, 6-(4-Chlorophenyl)-N-[(2R)-1-fluoro-3-hydroxypropan-2-yl]-3-oxo-2-(1,2-thiazol-4-yl)-2,3-dihydropyridazine-4-carboxamide] are 9.08 and below 4.70.
Consider `Cn1cc(-n2nc(-c3ccc(C(F)(F)F)cc3)cc(C(=O)N[C@@H]3COC[C@@H]3O)c2=O)cn1` (relative stereo) [Example 215, N-cis-4- Hydroxytetrahyd rofuran-3-yl-2-(1-methyl-1H-pyrazol-4-yl)-3-oxo-6-[4-(trifluoromethyl)phenyl]-2,3-dihydropyridazine-4-carboxamide], for which the pIC50 on AHR [1] was 8.66; on AHR [2], below 4.70.
For `Cn1cc(-n2nc(-c3ccc(OC(F)(F)F)cc3)cc(C(=O)N[C@@H]3COC[C@@H]3O)c2=O)cn1` (single isomer, unassigned; enantiomer 1) [Example 56, N-[(cis)-4-Hydroxytetrahydrofuran-3-yl]-2-(1-methyl-1H-pyrazol-4-yl)-3-oxo-6-[4-(trifluoromethoxy)phenyl]-2,3-dihydropyridazine-4-carboxamide, Enantiomer 1], in that order: 7.59 and below 4.70.
`O=C(N[C@H](CO)C(F)(F)F)c1cc(-c2ccc(Cl)cc2)nn(-c2cncnc2)c1=O` [Example 271, 6-(4-Chlorophenyl)-3-oxo-2-(pyrimidin-5-yl)-N-[(2R)-1,1,1-trifluoro-3-hydroxypropan-2-yl]-2,3-dihydropyridazine-4-carboxamide]: the pIC50 on AHR [1] is 7.14; at AHR [2], below 4.70.
For the compound `Cn1cc(-n2nc(-c3ccc(Cl)cc3)cc(C(=O)N[C@@H]3CCC[C@]3(C)O)c2=O)cn1` (single isomer, unassigned) [Example 335, 6-(4-Chlorophenyl)-N-[(cis)-2-hydroxy-2-methylcyclopentyl]-2-(1-methyl-1H-pyrazol-4-yl)-3-oxo-2,3-dihydropyridazine-4-carboxamide], the pIC50 at AHR [1] is 7.95; at AHR [2] it was below 4.70.
Turning to `O=C(N[C@H]1CCCC(F)(F)[C@@H]1O)c1cc(-c2ccc(Cl)cc2)nn(-c2cccnc2)c1=O` (racemic) [Example 143, 6-(4-Chlorophenyl)-N-[(trans)-3,3-difluoro-2-hydroxycyclohexyl]-3-oxo-2-(pyridin-3-yl)-2,3-dihydropyridazine-4-carboxamide], the figures for the pIC50 on AHR [1] and at AHR [2] were 8.02 and below 4.70, respectively.
For `CCC(CO)NC(=O)c1cc(-c2ccc(C)cc2)nn(-c2cnn(C)c2)c1=O` (single isomer, unassigned) [Example 6, N-(1-Hydroxybutan-2-yl)-6-(4-methylphenyl)-2-(1-methyl-1H-pyrazol-4-yl)-3-oxo-2,3-dihydropyridazine-4-carboxamide], the negative-log IC50 (pIC50) at AHR [1] was 6.74; at AHR [2] it was below 4.70.
On the same counts, the results for `O=C(N[C@H]1CCC[C@@H]1O)c1cc(-c2ccc(Cl)cc2)nn(-c2ccnnc2)c1=O` [Example 174, 3-(4-Chlorophenyl)-N-[(1S,2S)-2-hydroxycyclopentyl]-6-oxo-6H-1,4′-bipyridazine-5-carboxamide] are 7.21 and below 4.70.
